Assay results from patent US6500810B2, “Method of regulating expression of adhesion molecules on circulating leukocytes” (Sky High, LLC, priority 1999, dated 2002).

Tested on: CD18
Assay: Flow cytometry of CD18 on isolated rat neutrophils stimulated with LTB4
Type: cell-based
Settings: in vitro
Description: Flow cytometric analysis of CD18 complex in rat neutrophils was performed according to standard procedures as described in Vedder & Harlan, J. Clin. Invest., 81:676-682 (1988). Rat neutrophils were freshly isolated from rat whole blood according to the method of Williams et al., J. Leukocyte Biol., 42:455-462 (1987). Isolated neutrophils were washed twice in calcium-free Tyrode's solution containing 0.2% bovine serum albumin (BSA) and suspended in RPMI1630 medium. Neutrophils (5×10^5 cells/tube) were incubated with a monoclonal antibody directed against CD18 (Endogen, Boston, Mass.) at 4° C. for 30 minutes. Excess primary antibody was then removed by washing the platelets or neutrophils in RPMI1630. A goat anti-human gig F(AB′)2 FITC conjugate was used as the secondary antibody at a 1:100 dilution (4° C. for 30 minutes). The stained neutrophils were washed twice with RPMI1630 and finally fixed in 1% paraformaldehyde, and then analyzed by flow cytometry (FACScan, Becton-Dickinson, San Jose, Calif.).

CCCCCCCC/C=C\CCCCCCCC(=O)OCC(COP(O)(O)=S)OC (racemic) [LXR-1035, rac-1-thiophosphate-2-O-methyl-3-oleioyl-glycerol]
cell surface expression of the adhesion molecule CD18: inhibits
